Laboratory results as given in patent US20150329515A1, “COMPOSITION AND METHOD FOR TREATING OR PREVENTING INFLUENZA VIRUS INFECTION” (National Defense Medical Center, priority 2014, published 2015).

What was measured:
[1] = test system: influenza A/New York/469/2004-like flu (H3N2) virus; assay: in vitro; details: dog
[2] = test system: influenza A/New York/469/2004-like flu (H3N2) virus; assay: microbe, parasite or virus in culture; details: H3N2, MDCK, read-out: EC50 (μM), H3N2
[3] = in vitro; details: dog
[4] = CC50 (μM), Table 4 (H3N2 series), MDCK cells

SMILES	melting point [°C]	selectivity ratio at 24 h [1]	EC50 [2] [µM]	CC50 [3, 4] [µM]	CC50 [3] [µM]
O=c1cc(-c2cccc(Br)c2)oc2cc(O)c(O)c(O)c12 [Compound 6b, 2-(3-Bromophenyl)-5,6,7-trihydroxy-4H-chromen-4-one]	255 to 256	> 8.4	35.9	> 300	–
COc1cc2oc(-c3ccc(Br)cc3)cc(=O)c2c(OC)c1OC [Compound 2m, 2-(4-Bromophenyl)-5,6,7-trimethoxy-4H-chromen-4-one]	165 to 166	–	–	> 300	–
COc1cc2oc(-c3cccc(Br)c3)cc(=O)c2c(OC)c1OC [Compound 2l, 2-(3-Bromophenyl)-5,6,7-trimethoxy-4H-chromen-4-one]	190 to 191	0.5	128	64.1	–
COc1c(O)cc2oc(-c3ccccc3Br)cc(=O)c2c1O [Compound 5a, 2-(2-Bromophenyl)-5,7-dihydroxy-6-methoxy-4H-chromen-4-one]	–	> 17.3	17.3	> 300	–
O=c1cc(-c2ccccc2Br)oc2cc(O)c(O)c(O)c12 [Compound 6a, 2-(2-Bromophenyl)-5,6,7-trihydroxy-4H-chromen-4-one]	249 to 251	> 4.2	71.8	> 300	–
COc1c(O)cc2oc(-c3ccc(Br)cc3)cc(=O)c2c1O [Compound 5c, 2-(4-Bromophenyl)-5,7-dihydroxy-6-methoxy-4H-chromen-4-one]	275 to 276	> 8.7	34.5	> 300	–
O=c1cc(-c2ccc(Br)cc2)oc2cc(O)c(O)c(O)c12 [Compound 6c, 2-(4-Bromophenyl)-5,6,7-trihydroxy-4H-chromen-4-one]	–	> 8.4	35.9	> 300	–
CCOC(=O)C1=C[C@@H](OC(CC)CC)[C@H](NC(C)=O)[C@@H](N)C1 [oseltamivir, reference compound]	–	–	–	–	320
O=C(O)[C@H]1O[C@@H](Oc2cc3oc(-c4ccccc4)cc(=O)c3c(O)c2O)[C@H](O)[C@@H](O)[C@@H]1O [Baicalin, reference compound]	–	> 2.9	104	> 300	–
COc1c(O)cc2oc(-c3cccc(Br)c3)cc(=O)c2c1O [Compound 5b, 2-(3-Bromophenyl)-5,7-dihydroxy-6-methoxy-4H-chromen-4-one]	–	> 17.3	17.3	> 300	–
NC(=O)c1ncn([C@@H]2O[C@H](CO)[C@@H](O)[C@H]2O)n1 [Ribavirin, reference compound]	–	> 11.7	25.6	> 300	–
COc1cc2oc(-c3ccccc3Br)cc(=O)c2c(O)c1OC [Compound 4a, 2-(2-Bromophenyl)-5-hydroxy-6,7-dimethoxy-4H-chromen-4-one]	221 to 222	1.5	133	200	–
COc1cc2oc(-c3ccccc3Br)cc(=O)c2c(OC)c1OC [Compound 2k, 2-(2-Bromophenyl)-5,6,7-trimethoxy-4H-chromen-4-one]	122 to 123	2	64.1	128	–
O=c1cc(-c2ccccc2)oc2cc(O)c(O)c(O)c12 [Baicalein, reference compound]	–	> 3.3	92.3	> 300	–
COc1cc2oc(-c3cccc(Br)c3)cc(=O)c2c(O)c1OC [Compound 4b, 2-(3-Bromophenyl)-5-hydroxy-6,7-dimethoxy-4H-chromen-4-one]	188 to 189	0.5	133	66.5	–
COc1cc2oc(-c3ccc(Br)cc3)cc(=O)c2c(O)c1OC [Compound 4c, 2-(4-Bromophenyl)-5-hydroxy-6,7-dimethoxy-4H-chromen-4-one]	206 to 208	–	–	> 300	–
